Measured values published in ChEMBL document CHEMBL4376834, “Discovery of 4H-Chromen-4-one Derivatives as a New Class of Selective Rho Kinase (ROCK) Inhibitors, which Showed Potent Activity in ex Vivo Diabetic Retinopathy Models” (J Med Chem, 2019).

Tests used:
[1] = target: Tyrosine-protein kinase HCK (Homo sapiens, UniProt P08631); assay: Inhibition of human recombinant activated HCK (230 to 497 residues) using GGMEDIYFEFMGG as substrate after 40 mins by [gamma-33ATP] radiometric assay
[2] = target: Homeodomain-interacting protein kinase 2 (Homo sapiens, UniProt Q9H2X6); assay: Inhibition of human recombinant HIPK2 I471N mutant (165 to 564 residues) using myelin basic protein as substrate after 40 mins by [gamma-33ATP] radiometric assay
[3] = target: Serine/threonine-protein kinase BRSK2 (Homo sapiens, UniProt Q8IWQ3); assay: Inhibition of recombinant human BRSK2 (2 to end residues) using KKLNRTLSFAEPG substrate incubated for 40 mins in presence of [gamma-33ATP] by radiometric scintillation counting analysis
[4] = target: cGMP-dependent protein kinase 1 (Homo sapiens, UniProt Q13976); assay: Inhibition of recombinant full length human PKG1alpha using RRRLSFAEPG as substrate incubated for 40 mins in presence of [gamma-33P]ATP and 10 uM ATP by radiometric scintillation counting analysis
[5] = target: Dual specificity protein kinase CLK3 (Homo sapiens, UniProt P49761); assay: Inhibition of recombinant full length human CLK3 using ERMRPRKRQGSVR as substrate incubated 40 mins in presence of [gamma-33ATP] by radiometric scintillation counting analysis
[6] = target: Cyclin-dependent kinase 2/cyclin E1 (Homo sapiens, UniProt P24941); assay: Inhibition of recombinant full length human CDK2/CyclinE using Histone H1 as substrate incubated for 40 mins in presence of [gamma-33ATP] by radiometric scintillation counting analysis; type: protein-complex assay
[7] = target: Glycogen synthase kinase-3 alpha (Homo sapiens, UniProt P49840); assay: Inhibition of human GSK-3alpha S449A mutant (2 to end residues) using YRRAAVPPSPSLSR as substrate after 40 mins by [gamma-33ATP] radiometric scintillation counting analysis
[8] = target: Misshapen-like kinase 1 (Homo sapiens, UniProt Q8N4C8); assay: Inhibition of recombinant human MINK (1 to 310 residues) using myelin basic protein as substrate incubated for 40 mins in presence of [gamma-33ATP by radiometric scintillation counting analysis
[9] = target: Serine/threonine-protein kinase ULK1 (Homo sapiens, UniProt O75385); assay: Inhibition of recombinant human ULK1 (1 to 314 residues) using casein as substrate incubated for 40 mins in presence of [gamma33P]ATP by radiometric scintillation counting analysis
[10] = target: Maternal embryonic leucine zipper kinase (Homo sapiens, UniProt Q14680); assay: Inhibition of recombinant human MELK (1 to 340 residues) using KKLNRTLSFAEPG as substrate incubated for 40 mins in presence of [gamma-33ATP by radiometric scintillation counting analysis
[11] = target: NUAK family SNF1-like kinase 2 (Homo sapiens, UniProt Q9H093); assay: Inhibition of recombinant human full length NUAK2 using KKKVSRSGLYRSP as substrate measured after 40 mins in presence of [gamma33P]ATP by radiometric scintillation counting analysis
[12] = target: Tyrosine-protein kinase JAK3 (Homo sapiens, UniProt P52333); assay: Inhibition of human recombinant JAK3 (781 to end residues) using GGEEEEYFELVKK as substrate after 40 mins by [gamma-33ATP] by radiometric scintillation counting analysis
[13] = target: Activin receptor type-1-like (Homo sapiens, UniProt P37023); assay: Inhibition of human recombinant ALK1 (142 to end residues) using casein as substrate incubated for 40 mins in presence of [gamma-33P]ATP by radiometric scintillation counting analysis
[14] = target: Calcium/calmodulin-dependent protein kinase kinase 1 (Homo sapiens, UniProt Q8N5S9); assay: Inhibition of recombinant full length human CaMKK1 using calmodulin as substrate incubated for 40 mins in presence of [gamma-33ATP] by radiometric scintillation counting analysis
[15] = Inhibition of recombinant human TIE2 Q939H/Q940H/ R849W triple mutant (771 to end residues) using EFPIYDFLPAKKK as substrate incubated for 40 mins in presence of [gamma33P]ATP by radiometric scintillation counting analysis
[16] = target: Serine/threonine-protein kinase 4 (Homo sapiens, UniProt Q13043); assay: Inhibition of recombinant full-length human MST1 using KKSRGDYMTMQIG as substrate measured after 40 mins in presence of [gamma33P]ATP by radiometric scintillation counting analysis
[17] = target: Epidermal growth factor receptor (Homo sapiens, UniProt P00533, L858R); assay: Inhibition of recombinant human EGFR L858R mutant (696 to end residues) using poly(Glu, Tyr) 4:1 as substrate after 40 mins in presence of [gamma-33ATP] by radiometric scintillation counting analysis
[18] = target: CDK9/cyclin T1 (Homo sapiens, UniProt P50750); assay: Inhibition of recombinant full length human CDK9/cyclinT1 using KTFCGTPEYLAPE as substrate incubated for 40 mins in presence of [gamma-33ATP] by radiometric scintillation counting analysis; type: protein-complex assay
[19] = target: Tau-tubulin kinase 1 (Homo sapiens, UniProt Q5TCY1); assay: Inhibition of recombinant human TTBK1 (1 to 479 residues) using casein as substrate incubated for 40 mins in presence of [gamma33P]ATP by radiometric scintillation counting analysis
[20] = target: Serine/threonine-protein kinase SIK2 (Homo sapiens, UniProt Q9H0K1); assay: Inhibition of recombinant human SIK2 (1 to 276 residues) using KKKVSRSGLYRSP as substrate incubated for 40 mins in presence of [gamma33P]ATP by radiometric scintillation counting analysis
[21] = target: CDC7/Cyclin B1 (Homo sapiens, UniProt O00311+P14635); assay: Inhibition of recombinant full length human CDC7/CyclinB1 using Histone H1 as substrate incubated for 120 mins in presence of [gamma-33ATP] by radiometric scintillation counting analysis; type: protein-complex assay
[22] = target: Mitogen-activated protein kinase 14 (Homo sapiens, UniProt Q16539); assay: Inhibition of recombinant human full length SAPK2a using myelin basic protein as substrate incubated for 40 mins in presence of [gamma33P]ATP by radiometric scintillation counting analysis
[23] = target: Serine/threonine-protein kinase tousled-like 1 (Homo sapiens, UniProt Q9UKI8); assay: Inhibition of recombinant full-length human TLK1 using casein as substrate incubated for 40 mins in presence of [gamma33P]ATP by radiometric scintillation counting analysis
[24] = target: Aurora kinase C (Homo sapiens, UniProt Q9UQB9); assay: Inhibition of human recombinant AURORA-C (35 to end residues) using AKRRRLSSLRA as substrate incubated for 40 mins in presence of [gamma-33ATP] by radiometric scintillation counting analysis
[25] = target: Discoidin domain-containing receptor 2 (Homo sapiens, UniProt Q16832); assay: Inhibition of recombinant human DDR2 S642A mutant (467 to end residues) using KKSRGDYMTMQIG as substrate after 40 mins in presence of [gamma-33ATP] by radiometric scintillation counting analysis
[26] = target: Calcium/calmodulin-dependent protein kinase type 1B (Homo sapiens, UniProt Q6P2M8); assay: Inhibition of recombinant full length human CaMK1beta using KKLRRTLSFAEP as substrate incubated for 40 mins in presence of [gamma-33ATP] by radiometric scintillation counting analysis
Chain of Calcium/calmodulin-dependent protein kinase type 1B (Q6P2M8 whole entry): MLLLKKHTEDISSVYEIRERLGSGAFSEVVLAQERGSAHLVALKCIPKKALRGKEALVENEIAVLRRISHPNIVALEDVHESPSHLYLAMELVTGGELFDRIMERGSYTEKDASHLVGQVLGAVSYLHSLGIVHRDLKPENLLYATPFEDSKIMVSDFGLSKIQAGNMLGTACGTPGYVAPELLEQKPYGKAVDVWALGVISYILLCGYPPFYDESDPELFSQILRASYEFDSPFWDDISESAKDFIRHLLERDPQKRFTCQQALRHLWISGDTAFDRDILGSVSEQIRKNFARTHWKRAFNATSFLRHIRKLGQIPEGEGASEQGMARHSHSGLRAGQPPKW

Chain of cGMP-dependent protein kinase 1 (Q13976 whole entry): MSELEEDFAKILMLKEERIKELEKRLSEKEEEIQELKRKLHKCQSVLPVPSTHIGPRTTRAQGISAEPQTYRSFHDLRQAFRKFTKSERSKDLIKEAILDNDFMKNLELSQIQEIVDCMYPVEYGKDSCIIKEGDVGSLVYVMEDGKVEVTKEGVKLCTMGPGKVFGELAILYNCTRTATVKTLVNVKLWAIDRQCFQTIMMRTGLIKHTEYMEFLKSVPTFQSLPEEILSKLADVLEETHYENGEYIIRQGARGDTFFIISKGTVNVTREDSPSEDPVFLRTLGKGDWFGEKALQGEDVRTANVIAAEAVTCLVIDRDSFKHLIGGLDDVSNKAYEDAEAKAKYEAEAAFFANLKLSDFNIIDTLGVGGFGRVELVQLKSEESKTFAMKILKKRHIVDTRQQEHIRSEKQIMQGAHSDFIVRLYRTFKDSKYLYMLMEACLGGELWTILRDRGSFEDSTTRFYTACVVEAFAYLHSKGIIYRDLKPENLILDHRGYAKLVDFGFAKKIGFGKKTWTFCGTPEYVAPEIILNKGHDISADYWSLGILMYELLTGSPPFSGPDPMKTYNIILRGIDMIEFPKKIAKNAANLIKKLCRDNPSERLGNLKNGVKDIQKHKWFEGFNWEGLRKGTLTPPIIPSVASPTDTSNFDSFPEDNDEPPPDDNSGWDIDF
Chain of Tyrosine-protein kinase HCK (P08631 whole entry, the tested form may be a part): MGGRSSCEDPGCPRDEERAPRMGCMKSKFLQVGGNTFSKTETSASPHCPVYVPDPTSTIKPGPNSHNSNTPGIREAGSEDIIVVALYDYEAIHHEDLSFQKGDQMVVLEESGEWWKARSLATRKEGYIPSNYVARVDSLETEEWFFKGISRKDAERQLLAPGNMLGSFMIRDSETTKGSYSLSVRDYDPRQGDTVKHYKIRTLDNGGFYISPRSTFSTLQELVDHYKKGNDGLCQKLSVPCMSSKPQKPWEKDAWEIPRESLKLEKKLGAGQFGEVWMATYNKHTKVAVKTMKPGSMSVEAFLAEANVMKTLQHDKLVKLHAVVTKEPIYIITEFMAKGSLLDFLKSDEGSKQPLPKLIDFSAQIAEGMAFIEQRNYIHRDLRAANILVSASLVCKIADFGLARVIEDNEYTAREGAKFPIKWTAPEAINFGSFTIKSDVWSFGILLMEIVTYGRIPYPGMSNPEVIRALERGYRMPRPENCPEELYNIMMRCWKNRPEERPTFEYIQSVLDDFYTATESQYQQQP
Chain of Serine/threonine-protein kinase BRSK2 (Q8IWQ3 whole entry): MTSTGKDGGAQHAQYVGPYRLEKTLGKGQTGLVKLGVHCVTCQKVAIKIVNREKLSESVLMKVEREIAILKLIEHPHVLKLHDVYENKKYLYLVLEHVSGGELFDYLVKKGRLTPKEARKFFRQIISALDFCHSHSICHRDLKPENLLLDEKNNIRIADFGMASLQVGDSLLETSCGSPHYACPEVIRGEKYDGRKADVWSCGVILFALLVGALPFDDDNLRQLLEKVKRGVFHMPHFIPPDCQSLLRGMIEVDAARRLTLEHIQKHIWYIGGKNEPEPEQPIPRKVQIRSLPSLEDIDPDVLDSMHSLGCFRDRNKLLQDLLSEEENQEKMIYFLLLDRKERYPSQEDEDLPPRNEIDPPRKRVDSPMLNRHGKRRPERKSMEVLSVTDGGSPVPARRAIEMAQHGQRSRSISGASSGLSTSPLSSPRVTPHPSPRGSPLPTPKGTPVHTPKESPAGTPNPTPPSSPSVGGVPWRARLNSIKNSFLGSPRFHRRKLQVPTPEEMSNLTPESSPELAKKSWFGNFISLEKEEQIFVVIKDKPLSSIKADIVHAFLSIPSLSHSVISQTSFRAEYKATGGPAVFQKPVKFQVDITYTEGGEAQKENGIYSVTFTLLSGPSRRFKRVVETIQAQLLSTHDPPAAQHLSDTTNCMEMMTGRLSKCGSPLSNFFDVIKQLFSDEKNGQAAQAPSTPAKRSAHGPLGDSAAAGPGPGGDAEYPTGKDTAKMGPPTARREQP
Chain of Misshapen-like kinase 1 (Q8N4C8 whole entry, the tested form may be a part): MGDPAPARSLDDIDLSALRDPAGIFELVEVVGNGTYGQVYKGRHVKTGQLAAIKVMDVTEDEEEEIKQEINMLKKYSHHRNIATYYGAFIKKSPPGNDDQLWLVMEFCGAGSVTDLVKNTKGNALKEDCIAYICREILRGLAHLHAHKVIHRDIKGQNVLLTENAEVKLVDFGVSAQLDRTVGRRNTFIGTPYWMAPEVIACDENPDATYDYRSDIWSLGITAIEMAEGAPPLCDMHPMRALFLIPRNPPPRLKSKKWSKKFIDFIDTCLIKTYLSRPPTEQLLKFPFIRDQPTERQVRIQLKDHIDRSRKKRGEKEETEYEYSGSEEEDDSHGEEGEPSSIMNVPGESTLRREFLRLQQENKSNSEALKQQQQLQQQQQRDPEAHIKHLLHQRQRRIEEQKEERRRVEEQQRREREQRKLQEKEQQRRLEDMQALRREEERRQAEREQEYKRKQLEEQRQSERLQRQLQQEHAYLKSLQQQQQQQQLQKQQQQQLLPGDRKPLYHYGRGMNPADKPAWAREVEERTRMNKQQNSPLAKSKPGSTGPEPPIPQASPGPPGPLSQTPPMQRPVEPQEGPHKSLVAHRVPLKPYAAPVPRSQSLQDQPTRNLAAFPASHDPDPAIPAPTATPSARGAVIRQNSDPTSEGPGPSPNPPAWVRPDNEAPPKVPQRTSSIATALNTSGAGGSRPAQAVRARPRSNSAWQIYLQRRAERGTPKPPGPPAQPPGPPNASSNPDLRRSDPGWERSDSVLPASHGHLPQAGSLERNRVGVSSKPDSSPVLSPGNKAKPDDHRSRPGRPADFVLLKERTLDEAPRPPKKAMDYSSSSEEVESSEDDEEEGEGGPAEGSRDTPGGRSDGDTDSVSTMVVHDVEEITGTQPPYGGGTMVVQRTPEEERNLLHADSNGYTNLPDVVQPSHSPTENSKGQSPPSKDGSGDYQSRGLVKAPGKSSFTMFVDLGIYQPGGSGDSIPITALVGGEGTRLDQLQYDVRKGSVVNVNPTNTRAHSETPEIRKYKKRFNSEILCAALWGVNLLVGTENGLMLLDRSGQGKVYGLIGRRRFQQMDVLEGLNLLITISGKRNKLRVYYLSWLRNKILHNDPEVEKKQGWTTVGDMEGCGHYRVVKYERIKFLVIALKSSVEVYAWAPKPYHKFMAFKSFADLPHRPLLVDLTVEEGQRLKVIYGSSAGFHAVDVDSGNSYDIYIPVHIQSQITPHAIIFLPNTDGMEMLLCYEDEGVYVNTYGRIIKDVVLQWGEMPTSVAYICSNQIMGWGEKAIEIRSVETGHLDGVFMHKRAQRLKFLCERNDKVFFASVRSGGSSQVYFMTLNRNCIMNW
Chain of Maternal embryonic leucine zipper kinase (Q14680 whole entry, the tested form may be a part): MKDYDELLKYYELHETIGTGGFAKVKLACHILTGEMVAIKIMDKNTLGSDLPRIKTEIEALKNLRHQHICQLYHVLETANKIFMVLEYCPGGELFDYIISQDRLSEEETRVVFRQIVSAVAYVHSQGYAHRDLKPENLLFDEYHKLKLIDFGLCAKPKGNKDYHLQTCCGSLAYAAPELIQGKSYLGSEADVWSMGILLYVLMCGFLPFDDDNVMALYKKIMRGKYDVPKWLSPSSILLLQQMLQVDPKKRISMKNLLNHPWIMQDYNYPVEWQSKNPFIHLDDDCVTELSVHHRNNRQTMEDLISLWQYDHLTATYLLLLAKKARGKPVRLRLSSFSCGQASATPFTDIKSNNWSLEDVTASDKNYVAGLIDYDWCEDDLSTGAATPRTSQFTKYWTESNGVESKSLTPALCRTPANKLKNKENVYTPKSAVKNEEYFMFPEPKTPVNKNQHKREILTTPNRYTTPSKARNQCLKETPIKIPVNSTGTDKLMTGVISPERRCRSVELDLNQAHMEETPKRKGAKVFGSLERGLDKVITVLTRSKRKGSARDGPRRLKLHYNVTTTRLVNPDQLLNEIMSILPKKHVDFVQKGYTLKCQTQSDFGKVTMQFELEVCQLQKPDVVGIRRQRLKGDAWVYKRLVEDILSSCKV
Chain of Serine/threonine-protein kinase tousled-like 1 (Q9UKI8 whole entry): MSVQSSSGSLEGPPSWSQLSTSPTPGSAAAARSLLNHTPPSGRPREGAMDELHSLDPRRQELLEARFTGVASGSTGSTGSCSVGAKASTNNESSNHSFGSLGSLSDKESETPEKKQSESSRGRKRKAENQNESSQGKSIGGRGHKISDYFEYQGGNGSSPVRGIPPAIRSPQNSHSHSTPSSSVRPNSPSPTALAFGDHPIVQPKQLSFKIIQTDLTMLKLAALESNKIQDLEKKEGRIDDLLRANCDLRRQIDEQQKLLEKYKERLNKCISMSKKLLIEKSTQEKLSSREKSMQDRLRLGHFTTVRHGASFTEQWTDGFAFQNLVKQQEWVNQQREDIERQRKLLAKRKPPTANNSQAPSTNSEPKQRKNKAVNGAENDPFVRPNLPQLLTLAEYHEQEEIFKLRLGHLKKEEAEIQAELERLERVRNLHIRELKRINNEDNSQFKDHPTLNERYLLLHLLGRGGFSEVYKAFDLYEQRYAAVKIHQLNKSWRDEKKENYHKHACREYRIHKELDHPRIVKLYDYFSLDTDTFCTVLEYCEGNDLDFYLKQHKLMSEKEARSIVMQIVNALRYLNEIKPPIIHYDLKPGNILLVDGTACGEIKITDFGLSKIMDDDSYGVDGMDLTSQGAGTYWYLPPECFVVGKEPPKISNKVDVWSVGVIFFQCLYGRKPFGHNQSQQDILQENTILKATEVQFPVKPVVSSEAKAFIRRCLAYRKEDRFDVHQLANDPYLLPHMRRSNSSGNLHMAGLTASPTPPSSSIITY

CN(C)c1ccc(C(=O)Nc2cccc(NC(=O)COc3ccc4c(=O)ccoc4c3)c2)cc1
IC50 [1]: > 10 µM | IC50 [2]: > 10 µM | IC50 [3]: > 10 µM | IC50 [4]: 0.517 µM | IC50 [5]: > 10 µM | IC50 [6]: > 10 µM | IC50 [7]: > 10 µM | IC50 [8]: > 10 µM | IC50 [9]: > 10 µM | IC50 [10]: > 10 µM | IC50 [11]: > 10 µM | IC50 [12]: > 10 µM | IC50 [13]: > 10 µM | IC50 [14]: > 10 µM | IC50 [15]: > 10 µM | IC50 [16]: > 10 µM | IC50 [17]: > 10 µM | IC50 [18]: > 10 µM | IC50 [19]: > 10 µM | IC50 [20]: > 10 µM | IC50 [21]: > 10 µM | IC50 [22]: > 10 µM | IC50 [23]: > 10 µM | IC50 [24]: > 10 µM | IC50 [25]: > 10 µM | IC50 [26]: > 10 µM
